From patent publication US10131669B2, “Pyrazolopyrimidine compounds” (Pfizer Inc., priority 2014, dated 2018)

Key:
Type in all cases: biochemical
human PDE4D3 = target: T1, human PDE4D3 (Homo sapiens, UniProt Q08499); experiment: PDE4D3 Scintillation Proximity Assay (SPA), inhibition of enzyme activity; conditions: geometric mean of 2-7 determinations unless otherwise indicated (b: ≥8 determinations; c: single determination); 1 μM cAMP, 30 min at 25° C.; read-out: Human PDE4D FL; IC50
T1 construct: His6 (C); made in house; host or cells: insect cells (baculovirus, pFastBac)
Outline: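 Recombinant enzyme from insect cells, Ni-NTA and Q Sepharose purified, used at 10 pM in 50 mM Tris pH 7.5, 1.3 mM MgCl2, 0.01% Brij. Substrate 1 μM cAMP with 3H-cAMP tracer, ~20% conversion, inhibitor range, 30 min at 25°C. Stopped with yttrium silicate SPA beads and scintillation read.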

Human PDE4A3 = target: T2, Human PDE4A3 (Homo sapiens, UniProt P27815); experiment: PDE4A3 Scintillation Proximity Assay (SPA), inhibition of enzyme activity; conditions: geometric mean of 2-7 determinations unless otherwise indicated (b: ≥8 determinations; c: single determination), 1 μM cAMP, 30 min at 25° C., read-out: Human PDE4A FL
T2 construct: His6 (N); FLAG (C); made in house; host or cells: insect cells (baculovirus, pFastBac)
Outline: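 Human PDE4A3 (aa 2–825, His6/FLAG-tagged, insect-cell expressed) at 80 pM hydrolyses 1 μM cAMP including 20 nM 3H-cAMP, ~20% conversion. Buffer is 50 mM Tris pH 7.5, 1.3 mM MgCl2, 0.01% Brij. Incubated 30 min at 25 °C with inhibitor range, stopped with yttrium silicate SPA beads, read after 8 h settling.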

Human PDE4B1 = target: T3, Human PDE4B1 (Homo sapiens, UniProt Q07343, S133E/S654A/S659A/S661A); experiment: PDE4B1 Scintillation Proximity Assay (SPA), inhibition of enzyme activity; conditions: geometric mean of 2-7 determinations unless otherwise indicated (b: ≥8 determinations; c: single determination); 1 μM cAMP, 30 min at 25° C.; read-out: Human PDE4B FL; IC50
T3 construct: His6 (N); thrombin cleavage site (N); made in house; host or cells: insect cells (baculovirus, pFastBac)
Outline: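 His-tagged human PDE4B1 expressed in insect cells and purified by Ni-NTA and Source 15Q was assayed in 50 mM Tris pH 7.5, 1.3 mM MgCl2, 0.01% Brij. The substrate was 1 μM cAMP with ³H-cAMP tracer, at about 20% conversion, for 30 min at 25 °C. Yttrium silicate SPA beads stopped the reaction; counts were read after 8 h settling.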

Human PDE4C1 = target: T4, Human PDE4C1 (Homo sapiens, UniProt Q08493); experiment: PDE4C1 Scintillation Proximity Assay (SPA), inhibition of enzyme activity; conditions: geometric mean of 2-7 determinations unless otherwise indicated (b: ≥8 determinations; c: single determination), 1 μM cAMP, 30 min at 25° C., read-out: Human PDE4C FL
T4 construct: His6 (N); FLAG (C); made in house; host or cells: insect cells (baculovirus, pFastBac)
Outline: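 Human recombinant FLAG/His-purified PDE4C1 from insect cells at 40 pM, with 1 μM cAMP (3H-cAMP tracer) in Tris pH 7.5, 1.3 mM MgCl2, 0.01% Brij, ~20% substrate turnover. Incubation 30 min at 25° C with a range of inhibitor concentrations. Stopped with yttrium silicate SPA beads and read by scintillation after 8 h settling.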

T3 sequence (Q07343 122-736 S133E/S654A/S659A/S661A): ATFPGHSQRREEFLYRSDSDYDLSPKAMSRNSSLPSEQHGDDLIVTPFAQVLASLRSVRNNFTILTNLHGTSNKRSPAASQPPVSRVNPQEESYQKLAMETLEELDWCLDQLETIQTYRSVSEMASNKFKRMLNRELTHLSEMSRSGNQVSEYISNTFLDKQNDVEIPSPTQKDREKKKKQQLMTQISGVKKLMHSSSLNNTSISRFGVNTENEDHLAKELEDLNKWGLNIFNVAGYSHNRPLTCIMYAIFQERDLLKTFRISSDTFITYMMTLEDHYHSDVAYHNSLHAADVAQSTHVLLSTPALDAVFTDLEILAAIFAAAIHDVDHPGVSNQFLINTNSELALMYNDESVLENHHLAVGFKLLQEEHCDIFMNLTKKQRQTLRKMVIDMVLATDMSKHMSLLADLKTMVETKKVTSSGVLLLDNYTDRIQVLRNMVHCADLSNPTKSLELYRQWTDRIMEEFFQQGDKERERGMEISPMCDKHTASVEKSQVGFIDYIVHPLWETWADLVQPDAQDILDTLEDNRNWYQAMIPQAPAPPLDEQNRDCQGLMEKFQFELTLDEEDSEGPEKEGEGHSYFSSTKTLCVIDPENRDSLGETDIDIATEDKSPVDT
T2 sequence (P27815 2-825 isoform P27815-6): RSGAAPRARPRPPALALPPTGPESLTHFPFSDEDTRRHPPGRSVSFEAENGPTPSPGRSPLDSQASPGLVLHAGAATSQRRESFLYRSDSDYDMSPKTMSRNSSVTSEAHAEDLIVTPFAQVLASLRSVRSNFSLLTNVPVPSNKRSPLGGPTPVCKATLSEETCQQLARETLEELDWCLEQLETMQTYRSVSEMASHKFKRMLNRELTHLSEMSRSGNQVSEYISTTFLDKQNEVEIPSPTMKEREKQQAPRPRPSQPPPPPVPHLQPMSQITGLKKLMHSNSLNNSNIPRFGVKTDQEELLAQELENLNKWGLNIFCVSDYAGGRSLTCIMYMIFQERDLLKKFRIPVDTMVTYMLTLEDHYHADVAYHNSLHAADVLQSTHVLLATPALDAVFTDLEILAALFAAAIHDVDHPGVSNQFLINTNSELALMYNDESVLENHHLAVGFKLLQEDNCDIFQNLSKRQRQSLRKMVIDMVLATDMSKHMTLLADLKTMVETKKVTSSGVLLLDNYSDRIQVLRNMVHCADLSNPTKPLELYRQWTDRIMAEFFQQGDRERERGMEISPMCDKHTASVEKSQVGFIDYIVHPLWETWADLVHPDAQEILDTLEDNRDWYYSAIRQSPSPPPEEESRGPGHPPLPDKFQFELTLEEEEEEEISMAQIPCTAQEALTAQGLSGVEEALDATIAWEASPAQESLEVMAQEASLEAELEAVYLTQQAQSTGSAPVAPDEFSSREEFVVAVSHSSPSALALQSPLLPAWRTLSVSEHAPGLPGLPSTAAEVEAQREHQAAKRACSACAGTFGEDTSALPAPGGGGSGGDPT
T4 sequence (Q08493 2-712): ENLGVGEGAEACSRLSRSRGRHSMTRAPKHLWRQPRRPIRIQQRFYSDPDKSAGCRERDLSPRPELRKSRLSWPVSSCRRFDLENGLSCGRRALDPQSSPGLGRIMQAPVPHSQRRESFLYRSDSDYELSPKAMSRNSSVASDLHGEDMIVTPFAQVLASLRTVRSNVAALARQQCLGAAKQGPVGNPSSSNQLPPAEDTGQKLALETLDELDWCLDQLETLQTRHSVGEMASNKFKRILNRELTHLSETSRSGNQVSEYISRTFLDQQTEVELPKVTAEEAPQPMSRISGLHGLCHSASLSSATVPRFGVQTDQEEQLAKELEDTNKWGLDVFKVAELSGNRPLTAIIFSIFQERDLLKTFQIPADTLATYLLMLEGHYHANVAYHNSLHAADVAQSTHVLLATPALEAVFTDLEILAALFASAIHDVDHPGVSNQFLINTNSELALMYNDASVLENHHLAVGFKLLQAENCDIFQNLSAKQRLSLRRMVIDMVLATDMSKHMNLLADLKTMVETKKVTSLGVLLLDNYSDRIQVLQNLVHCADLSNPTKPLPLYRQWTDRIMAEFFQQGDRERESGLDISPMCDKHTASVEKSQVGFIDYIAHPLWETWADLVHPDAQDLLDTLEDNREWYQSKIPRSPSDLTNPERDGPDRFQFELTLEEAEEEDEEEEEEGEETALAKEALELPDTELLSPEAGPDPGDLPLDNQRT
T1 sequence (Q08499 186-808): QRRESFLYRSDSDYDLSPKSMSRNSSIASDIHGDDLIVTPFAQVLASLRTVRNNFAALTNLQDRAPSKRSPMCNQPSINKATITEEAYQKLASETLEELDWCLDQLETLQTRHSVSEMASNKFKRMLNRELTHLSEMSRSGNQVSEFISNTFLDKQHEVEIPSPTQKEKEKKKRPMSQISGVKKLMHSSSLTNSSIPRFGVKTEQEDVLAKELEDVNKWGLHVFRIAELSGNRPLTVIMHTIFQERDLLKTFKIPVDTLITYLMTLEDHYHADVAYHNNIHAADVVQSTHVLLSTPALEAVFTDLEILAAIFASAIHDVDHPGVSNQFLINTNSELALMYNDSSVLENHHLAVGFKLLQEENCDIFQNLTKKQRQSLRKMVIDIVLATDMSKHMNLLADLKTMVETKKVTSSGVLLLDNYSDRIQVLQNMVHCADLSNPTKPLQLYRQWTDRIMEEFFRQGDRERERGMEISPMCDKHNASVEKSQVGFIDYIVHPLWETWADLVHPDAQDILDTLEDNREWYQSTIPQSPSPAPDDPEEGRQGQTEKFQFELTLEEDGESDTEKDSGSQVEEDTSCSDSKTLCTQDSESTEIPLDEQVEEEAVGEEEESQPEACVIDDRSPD

| Compound | IC50 (human PDE4D3) [nM] | IC50 (Human PDE4A3) [nM] | IC50 (Human PDE4B1) [nM] | IC50 (Human PDE4C1) [nM] |
| --- | --- | --- | --- | --- |
| N#Cc1cc(F)c(-c2c(C(=O)N3CCC3)nn3cccnc23)cc1F [Example 46, 4-[2-(azetidin-1-ylcarbonyl)pyrazolo[1,5-a]pyrimidin-3-yl]-2,5-difluorobenzonitrile] | 979 | 14.7 | 54.5 | 44 |
| O=C(NC1CC1)c1nn2cc(F)cnc2c1-c1cc(F)c(Cl)c(F)c1 [Example 57, 3-(4-chloro-3,5-difluorophenyl)-N-cyclopropyl-6-fluoropyrazolo[1,5-a]pyrimidine-2-carboxamide] | 92.1 | 0.461 | 2.71 | 2.83 |
